Where two headings read alike, the source gives them in different places.
Tests used:
[1] = test system: breast cancer, advanced ovarian cancer; test: Clinical response to single agent chemotherapy in patients (breast neoadjuvant docetaxel; ovarian salvage docetaxel, topotecan, taxol; adriamycin treated patients); format: in vivo, human; conditions: Ovarian tumor data set; responders/patients
Description: The development of a gene expression signature capable of predicting in vitro docetaxel sensitivity provides a tool that might be useful in predicting response to the drug in patients. We made use of published studies with clinical and genomic data that linked gene expression data with clinical response to docetaxel in a breast cancer neoadjuvant study^50 (FIG. 1D) to test the capacity of the in vitro docetaxel sensitivity predictor to accurately identify those patients that responded to docetaxel. […] We extended this further by predicting the response to docetaxel as salvage therapy for ovarian cancer.
Given the ability of the in vitro developed gene expression profiles to predict response to docetaxel in the clinical samples, we extended this approach to test the ability of additional signatures to predict response to commonly used salvage therapies for ovarian cancer and an independent data set of samples from adriamycin treated patients (Evans W, GSE650, GSE651). […] In each case, the positive and negative predictive values confirm the validity and clinical utility of the approach (Table 16).
Full details of the methods used for RNA extraction and development of gene expression signatures representing deregulation of oncogenic pathways in the tumor samples were recently described.^36 Response to therapy was evaluated using standard criteria for patients with measurable disease, based upon WHO guidelines.^28

NCI-60 cell line panel = test system: NCI-60 cell line panel; parameters: key: Sensitive; Resistant; conditions: cited from earlier work
[2] = test system: breast cancer, advanced ovarian cancer; conditions: responders/patients, cited from earlier work

CC[C@@]1(O)C(=O)OCc2c1cc1n(c2=O)Cc2cc3c(CN(C)C)c(O)ccc3nc2-1 [topotecan]
Actual Overall Response [1]: 20/48 (41.6%)

O=c1[nH]cc(F)c(=O)[nH]1 [5-FU, 5-fluorouracil]
Resistant or Sensitive (Res or Sen) (NCI-60 cell line panel; A498, Renal): Sen | Resistant or Sensitive (Res or Sen) (NCI-60 cell line panel; COLO 205, Colon): Sen | Resistant or Sensitive (Res or Sen) (NCI-60 cell line panel; EKVX, Non-Small Cell Lung): Res | Resistant or Sensitive (Res or Sen) (NCI-60 cell line panel; HCT-116, Colon): Sen | Resistant or Sensitive (Res or Sen) (NCI-60 cell line panel; LOX IMVI, Melanoma): Sen | Resistant or Sensitive (Res or Sen) (NCI-60 cell line panel; M14, Melanoma): Res | Resistant or Sensitive (Res or Sen) (NCI-60 cell line panel; MCF7, Breast): Sen | Resistant or Sensitive (Res or Sen) (NCI-60 cell line panel; MDA-MB-435, Melanoma): Res | Resistant or Sensitive (Res or Sen) (NCI-60 cell line panel; NCI-H460, Non-Small Cell Lung): Sen | Resistant or Sensitive (Res or Sen) (NCI-60 cell line panel; NCI/ADR-RES, Ovarian): Res | Resistant or Sensitive (Res or Sen) (NCI-60 cell line panel; OVCAR-8, Ovarian): Res | Resistant or Sensitive (Res or Sen) (NCI-60 cell line panel; SK-MEL-5, Melanoma): Sen | Resistant or Sensitive (Res or Sen) (NCI-60 cell line panel; SN12C, Renal): Res | Resistant or Sensitive (Res or Sen) (NCI-60 cell line panel; SW-620, Colon): Res | Resistant or Sensitive (Res or Sen) (NCI-60 cell line panel; UO-31, Renal): Sen

CC(=O)O[C@H]1C(=O)[C@@]2(C)[C@H]([C@H](OC(=O)c3ccccc3)[C@]3(O)C[C@H](OC(=O)[C@H](O)[C@@H](NC(=O)c4ccccc4)c4ccccc4)C(C)=C1C3(C)C)[C@]1(OC(C)=O)CO[C@@H]1C[C@@H]2O [taxol, paclitaxel]
Actual Overall Response [1]: 20/35 (57.1%)

COc1cccc2c1C(=O)c1c(O)c3c(c(O)c1C2=O)C[C@@](O)(C(=O)CO)C[C@@H]3O[C@H]1C[C@H](N)[C@H](O)[C@H](C)O1 [adriamycin]
Actual Overall Response ([2]; Evans et al. patient data set): 24/122 (19.6%)

CC(=O)O[C@@]12CO[C@@H]1C[C@H](O)[C@@]1(C)C(=O)[C@H](O)C3=C(C)[C@@H](OC(=O)[C@H](O)[C@@H](NC(=O)OC(C)(C)C)c4ccccc4)C[C@@](O)([C@@H](OC(=O)c4ccccc4)[C@H]21)C3(C)C [docetaxel]
Actual Overall Response [1]: 7/14 (50%) | Actual Overall Response ([2]; Breast Tumor Data, neoadjuvant (Chang et al.)): 13/24 (54.1%)

— patent US20100279957A1, “PREDICTING RESPONSIVENESS TO CANCER THERAPEUTICS” (priority 2007, published 2010)
